Data as given in ChEMBL document CHEMBL5352412, “Discovery of 1,2-diphenylethene derivatives as human DNA topoisomerase II catalytic inhibitors and antitumor agents” (Eur J Med Chem, 2022).
pIC50: −log10 of the molar value. The source made the active and inactive calls. The rule behind the calls is not given here.

Key:
HepG2 [1] = assay: Induction of apoptosis in human HepG2 cells assessed as viable cells at 0.5 uM incubated for 24 hrs by annexin-V FITC and PI staining based flow cytometry analysis (reference value: 93.8%); assay type: functional; conditions: read-out: Activity
[2] = Selectivity index, ratio of IC50 for human HL-7702 cells to IC50 for human A549 cells; assay type: toxicity; conditions: HL-7702 cells versus A549 cells, read-out: Ratio IC50
[3] = Selectivity index, ratio of IC50 for human HL-7702 cells to IC50 for human HeLa cells; assay type: toxicity; conditions: HL-7702 cells versus HeLa cells, read-out: Ratio IC50
[4] = biological target: T1, DNA topoisomerase 2-alpha (Homo sapiens, UniProt P11388); assay: Inhibition of human topoisomerase 2-alpha using pBR322 DNA as substrate incubated for 30 mins in presence of 0.5 to 5 mM ATP (reference value: 3.4 microM)
T1 sequence (P11388 whole entry): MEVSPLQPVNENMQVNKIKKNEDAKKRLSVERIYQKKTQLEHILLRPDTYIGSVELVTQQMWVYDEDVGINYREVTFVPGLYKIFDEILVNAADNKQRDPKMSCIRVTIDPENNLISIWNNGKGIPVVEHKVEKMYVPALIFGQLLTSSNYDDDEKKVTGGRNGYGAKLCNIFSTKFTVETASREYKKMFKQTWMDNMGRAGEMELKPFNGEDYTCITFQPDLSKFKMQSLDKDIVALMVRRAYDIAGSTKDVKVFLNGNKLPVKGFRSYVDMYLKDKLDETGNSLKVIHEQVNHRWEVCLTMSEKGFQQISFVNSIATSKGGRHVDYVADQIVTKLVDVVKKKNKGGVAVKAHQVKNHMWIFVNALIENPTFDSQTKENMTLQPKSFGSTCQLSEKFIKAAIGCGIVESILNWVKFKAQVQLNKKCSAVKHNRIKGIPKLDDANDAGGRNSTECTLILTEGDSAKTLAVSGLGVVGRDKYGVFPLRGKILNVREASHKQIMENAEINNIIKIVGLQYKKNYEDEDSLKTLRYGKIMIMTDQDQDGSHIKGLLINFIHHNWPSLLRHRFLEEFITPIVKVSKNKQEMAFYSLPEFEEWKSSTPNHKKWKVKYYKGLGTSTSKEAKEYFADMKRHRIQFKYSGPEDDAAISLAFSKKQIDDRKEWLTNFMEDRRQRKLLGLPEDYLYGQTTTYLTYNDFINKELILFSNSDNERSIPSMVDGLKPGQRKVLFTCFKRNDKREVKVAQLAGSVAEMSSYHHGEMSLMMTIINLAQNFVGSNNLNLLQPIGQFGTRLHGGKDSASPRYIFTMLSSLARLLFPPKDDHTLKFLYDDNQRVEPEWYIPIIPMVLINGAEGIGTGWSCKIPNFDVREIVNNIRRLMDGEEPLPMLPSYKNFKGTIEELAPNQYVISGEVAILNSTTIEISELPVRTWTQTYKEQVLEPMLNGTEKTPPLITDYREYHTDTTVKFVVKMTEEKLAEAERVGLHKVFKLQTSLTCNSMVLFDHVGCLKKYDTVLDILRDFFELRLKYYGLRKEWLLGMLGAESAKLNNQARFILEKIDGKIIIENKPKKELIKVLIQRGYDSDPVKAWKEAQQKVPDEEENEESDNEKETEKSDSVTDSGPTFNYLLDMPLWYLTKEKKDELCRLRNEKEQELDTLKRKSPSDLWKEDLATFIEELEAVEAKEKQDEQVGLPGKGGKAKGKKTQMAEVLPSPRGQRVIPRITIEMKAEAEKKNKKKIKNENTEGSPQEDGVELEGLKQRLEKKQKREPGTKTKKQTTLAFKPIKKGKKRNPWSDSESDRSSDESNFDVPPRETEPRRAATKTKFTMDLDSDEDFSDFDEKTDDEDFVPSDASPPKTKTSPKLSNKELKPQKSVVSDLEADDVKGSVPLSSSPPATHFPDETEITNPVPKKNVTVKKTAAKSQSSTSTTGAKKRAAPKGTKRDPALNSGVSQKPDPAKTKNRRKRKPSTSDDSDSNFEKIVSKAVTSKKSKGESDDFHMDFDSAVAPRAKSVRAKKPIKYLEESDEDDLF

[5] = biological target: T1, DNA topoisomerase 2-alpha; assay: Inhibition of human topoisomerase 2-alpha assessed as reduction in relaxation of pBR322 DNA at 25 uM measured after 30 mins by agarose gel electrophoresis method relative to control
HepG2 [6] = assay: Induction of apoptosis in human HepG2 cells assessed as late apoptotic cells at 1 uM incubated for 24 hrs by annexin-V FITC and PI staining based flow cytometry analysis (reference value: 2.3%); assay type: functional
HepG2 [7] = assay: Induction of apoptosis in human HepG2 cells assessed as late apoptotic cells at 0.5 uM incubated for 24 hrs by annexin-V FITC and PI staining based flow cytometry analysis (reference value: 2.3%); assay type: functional
HepG2 [8] = assay: Upregulation of gamma-H2AX level in human HepG2 cells incubated for 4 hrs by Western blotting analysis; assay type: functional, cell-based
[9] = Antiproliferative activity against human BEAS-2B cells incubated for 72 hrs by CCK8 assay; assay type: toxicity, cell-based
Homo sapiens [10] = organism: Homo sapiens; assay: Selectivity index, ratio of IC50 for human CCL-226 cells to IC50 for human HCT-116 cells
[11] = Selectivity index, ratio of IC50 for human HL-7702 cells to IC50 for human HCT-116 cells; assay type: toxicity; conditions: HL-7702 cells versus HCT-116 cells, read-out: Ratio IC50
[12] = Selectivity index, ratio of IC50 for human HL-7702 cells to IC50 for human MDA-MB-231 cells; assay type: toxicity; conditions: HL-7702 cells versus MDA-MB-231 cells, read-out: Ratio IC50
HepG2 [13] = assay: Induction of cell cycle arrest in human HepG2 cells assessed as accumulation of cells at G1 phase at 0.5 uM incubated for 24 hrs by PI staining based flow cytometry analysis (reference value: 54%); assay type: functional
Homo sapiens [14] = organism: Homo sapiens; assay: Selectivity index, ratio of IC50 for human CCL-226 cells to IC50 for human PC-3 cells
HepG2 [15] = assay: Induction of cell cycle arrest in human HepG2 cells assessed as accumulation of cells at G1 phase at 1 uM incubated for 24 hrs by PI staining based flow cytometry analysis (reference value: 54%); assay type: functional
[16] = biological target: T1, DNA topoisomerase 2-alpha; assay: Inhibition of human topoisomerase 2-alpha assessed as DNA intercalation at 100 to 200 uM using pBR322 DNA as substrate measured after 30 mins by agarose gel electrophoresis analysis; conditions: dose 100-200 µM
DNA topoisomerase 2-beta = DNA topoisomerase 2-beta (Homo sapiens, UniProt Q02880); assay: Inhibition of human topoisomerase 2-beta assessed as reduction in relaxation of pBR322 DNA measured after 30 mins by agarose gel electrophoresis method
DNA topoisomerase 2-beta, sequence (Q02880 whole entry): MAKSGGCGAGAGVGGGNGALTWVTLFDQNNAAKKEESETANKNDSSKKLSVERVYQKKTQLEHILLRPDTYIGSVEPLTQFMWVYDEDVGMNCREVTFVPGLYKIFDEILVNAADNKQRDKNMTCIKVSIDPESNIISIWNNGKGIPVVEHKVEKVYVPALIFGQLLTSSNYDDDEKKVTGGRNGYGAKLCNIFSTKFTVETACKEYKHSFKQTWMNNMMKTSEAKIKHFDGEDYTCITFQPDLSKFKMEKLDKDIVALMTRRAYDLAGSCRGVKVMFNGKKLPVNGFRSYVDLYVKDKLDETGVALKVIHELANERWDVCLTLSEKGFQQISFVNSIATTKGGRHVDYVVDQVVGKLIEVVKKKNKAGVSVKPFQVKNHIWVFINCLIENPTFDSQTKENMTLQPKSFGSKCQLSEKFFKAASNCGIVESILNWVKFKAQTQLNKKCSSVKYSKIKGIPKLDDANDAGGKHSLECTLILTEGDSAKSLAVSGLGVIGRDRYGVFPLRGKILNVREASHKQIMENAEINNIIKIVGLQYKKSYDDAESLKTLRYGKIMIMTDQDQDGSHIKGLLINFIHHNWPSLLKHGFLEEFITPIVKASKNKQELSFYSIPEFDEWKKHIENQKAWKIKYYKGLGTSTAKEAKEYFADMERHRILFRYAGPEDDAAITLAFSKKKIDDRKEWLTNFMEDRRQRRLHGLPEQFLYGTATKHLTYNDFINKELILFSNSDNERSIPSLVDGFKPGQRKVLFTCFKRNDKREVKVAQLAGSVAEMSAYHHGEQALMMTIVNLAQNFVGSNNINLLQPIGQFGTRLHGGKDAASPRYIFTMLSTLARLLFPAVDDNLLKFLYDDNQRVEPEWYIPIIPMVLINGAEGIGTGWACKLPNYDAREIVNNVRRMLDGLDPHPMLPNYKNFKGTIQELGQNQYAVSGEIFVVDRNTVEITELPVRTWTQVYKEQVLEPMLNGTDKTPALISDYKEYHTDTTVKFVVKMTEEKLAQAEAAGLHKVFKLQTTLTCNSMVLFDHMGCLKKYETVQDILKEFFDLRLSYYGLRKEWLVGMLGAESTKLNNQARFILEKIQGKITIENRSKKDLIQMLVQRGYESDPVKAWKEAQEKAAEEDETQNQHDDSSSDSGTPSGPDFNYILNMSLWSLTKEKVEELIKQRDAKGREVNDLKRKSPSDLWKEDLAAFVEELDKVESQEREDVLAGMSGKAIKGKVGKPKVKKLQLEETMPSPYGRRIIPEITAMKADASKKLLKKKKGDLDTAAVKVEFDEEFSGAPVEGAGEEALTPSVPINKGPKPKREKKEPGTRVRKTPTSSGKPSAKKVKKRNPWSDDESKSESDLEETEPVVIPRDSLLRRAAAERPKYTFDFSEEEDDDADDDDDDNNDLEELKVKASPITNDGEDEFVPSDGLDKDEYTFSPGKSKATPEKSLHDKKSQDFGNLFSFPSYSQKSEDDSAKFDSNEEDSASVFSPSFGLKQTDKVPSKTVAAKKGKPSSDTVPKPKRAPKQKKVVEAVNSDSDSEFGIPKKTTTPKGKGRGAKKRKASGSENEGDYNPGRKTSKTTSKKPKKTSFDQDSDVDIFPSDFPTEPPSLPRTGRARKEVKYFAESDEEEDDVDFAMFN

HeLa = assay: Antiproliferative activity against human HeLa cells incubated for 72 hrs by CCK8 assay; assay type: functional, cell-based
[17] = Selectivity index, ratio of IC50 for human BEAS-2B cells to IC50 for human MDA-MB-231 cells; assay type: toxicity; conditions: BEAS-2B cells versus MDA-MB-231 cells, read-out: Ratio IC50
HepG2 [18] = assay: Induction of apoptosis in human HepG2 cells assessed as necrotic cells at 0.5 uM incubated for 24 hrs by annexin-V FITC and PI staining based flow cytometry analysis (reference value: 0.2%); assay type: functional
HepG2 [19] = assay: Induction of cell cycle arrest in human HepG2 cells assessed as accumulation of cells at S phase at 0.5 uM incubated for 24 hrs by PI staining based flow cytometry analysis (reference value: 28.2%); assay type: functional
[20] = Antiproliferative activity against human CCL-226 cells incubated for 72 hrs by CCK8 assay; assay type: toxicity, cell-based
Homo sapiens [21] = organism: Homo sapiens; assay: Selectivity index, ratio of IC50 for human CCL-226 cells to IC50 for human A549 cells
Homo sapiens [22] = organism: Homo sapiens; assay: Selectivity index, ratio of IC50 for human CCL-226 cells to IC50 for human MDA-MB-231 cells
[23] = biological target: T1, DNA topoisomerase 2-alpha; assay: Inhibition of human topoisomerase 2-alpha assessed as reduction in relaxation of pBR322 DNA at 100 uM measured after 30 mins by agarose gel electrophoresis method relative to control
[24] = Antiproliferative activity against human HL7702 cells incubated for 72 hrs by CCK8 assay; assay type: toxicity, cell-based; conditions: HL7702 (L02) cells
[25] = Selectivity index, ratio of IC50 for human BEAS-2B cells to IC50 for human A549 cells; assay type: toxicity; conditions: BEAS-2B cells versus A549 cells, read-out: Ratio IC50
HepG2 [26] = assay: Induction of cell cycle arrest in human HepG2 cells assessed as accumulation of cells at G2/M phase at 0.5 uM incubated for 24 hrs by PI staining based flow cytometry analysis (reference value: 17.5%); assay type: functional
HepG2 [27] = assay: Induction of apoptosis in human HepG2 cells assessed as early apoptotic cells at 1 uM incubated for 24 hrs by annexin-V FITC and PI staining based flow cytometry analysis (reference value: 3.7%); assay type: functional
HepG2 [28] = assay: Induction of cell cycle arrest in human HepG2 cells assessed as accumulation of cells at S phase at 1 uM incubated for 24 hrs by PI staining based flow cytometry analysis (reference value: 28.2%); assay type: functional
HepG2 [29] = assay: Induction of apoptosis in human HepG2 cells assessed as early apoptotic cells at 0.5 uM incubated for 24 hrs by annexin-V FITC and PI staining based flow cytometry analysis (reference value: 3.7%); assay type: functional
HepG2 [30] = assay: Induction of apoptosis in human HepG2 cells assessed as necrotic cells at 1 uM incubated for 24 hrs by annexin-V FITC and PI staining based flow cytometry analysis (reference value: 0.2%); assay type: functional
PC-3 = assay: Antiproliferative activity against human PC-3 cells incubated for 72 hrs by CCK8 assay; assay type: functional, cell-based; conditions: PC-3, 72 h
[31] = biological target: T1, DNA topoisomerase 2-alpha; assay: Inhibition of human topoisomerase 2-alpha assessed as reduction in VP-16 induced enzyme-DNA cleavage complex formation by measuring linear DNA production; conditions: dose 10-100 µM
HepG2 [32] = assay: Induction of apoptosis in human HepG2 cells assessed as viable cells at 1 uM incubated for 24 hrs by annexin-V FITC and PI staining based flow cytometry analysis (reference value: 93.8%); assay type: functional; conditions: read-out: Activity
Homo sapiens [33] = organism: Homo sapiens; assay: Selectivity index, ratio of IC50 for human CCL-226 cells to IC50 for human HeLa cells
HepG2 [34] = assay: Antiproliferative activity against human HepG2 cells incubated for 72 hrs by CCK8 assay; assay type: functional, cell-based; conditions: Homo sapiens, HepG2, 72 h

Compound `O=C(CCc1ccccc1)Nc1ccc(-c2ccc3cc(O)ccc3c2)cc1` has a viability at 0.5 µM (HepG2 [1]) of 72.5%, a selectivity ratio [2] of over 52.1 and a selectivity ratio [3] of over 52.1. It also gave a pIC50 [4] of 4.87, an inhibition [5] of 84.6% and an Activity (HepG2 [6]) of 46.1%. The Activity (HepG2 [7]) was 13.4%, the Activity (HepG2 [8]) was “inactive” and the IC50 at 72 h [9] was 31.9 µM. The Ratio IC50 (Homo sapiens [10]) was over 52.1, the selectivity ratio [11] was over 52.1 and the selectivity ratio [12] was over 52.1. For the same compound, the Activity (HepG2 [13]) was 19%, the Ratio IC50 (Homo sapiens [14]) was over 52.1 and the Activity (HepG2 [15]) was 3.3%. For the same compound, the inhibition [16] was “inactive”, the pIC50 (DNA topoisomerase 2-beta) was 5.00 and the pIC50 (HeLa) was 7.00. It also gave a selectivity ratio [17] of over 52.1, an Activity (HepG2 [18]) of 0.1% and an Activity (HepG2 [19]) of 32%. It also gave an IC50 at 72 h [20] of over 50 µM, a Ratio IC50 (Homo sapiens [21]) of over 52.1 and a Ratio IC50 (Homo sapiens [22]) of over 52.1. For the same compound, the inhibition [23] was 82.1%, the IC50 at 72 h [24] was 16.7 µM and the selectivity ratio [25] was over 52.1. For the same compound, the Activity (HepG2 [26]) was 48.9%, the Activity (HepG2 [27]) was 24.5% and the Activity (HepG2 [28]) was 11.2%. It also gave an Activity (HepG2 [29]) of 14%, an Activity (HepG2 [30]) of 0.3% and a pIC50 (PC-3) of 6.52. For the same compound, the inhibition [31] was “Dose-Dependent Effect”, the viability at 1 µM (HepG2 [32]) was 29.2% and the Ratio IC50 (Homo sapiens [33]) was over 52.1. The pIC50 (HepG2 [34]) was 6.52.
